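Where inhibition never reached the appropriate level, the endpoint shown equals the highest concentration tested. Otherwise, values were interpolated linearly from a five-concentration, 48-hour dose response in 96-well plates. The concentration for full growth arrest is given as TGI.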
How the values were obtained:
Test in all cases: inhibition of tumour cell growth, NCI panel, 48 h
HOP-18 NSCLC = system: HOP-18 NSCLC
SNB-78 CNS = system: SNB-78 CNS
LXFL 529 NSCLC = system: LXFL 529 NSCLC
DMS 114 small cell lung = system: DMS 114 small cell lung
DMS 273 small cell lung = system: DMS 273 small cell lung
XF 498 CNS = system: XF 498 CNS
DLD-1 colon = system: DLD-1 colon
RXF-631 renal = system: RXF-631 renal
MDA-N = system: MDA-N
T-47D breast = system: T-47D breast

| SMILES | TGI (HOP-18 NSCLC) | TGI (SNB-78 CNS) | TGI (LXFL 529 NSCLC) | TGI (DMS 114 small cell lung) | TGI (DMS 273 small cell lung) | TGI (XF 498 CNS) | TGI (DLD-1 colon) | TGI (RXF-631 renal) | TGI (MDA-N) | TGI (T-47D breast) |
| --- | --- | --- | --- | --- | --- | --- | --- | --- | --- | --- |
| CCCCCC1CC=CC(NC(=O)OCc2ccccc2)C1/C=C/CCCC1OCCO1 (stereo not given) | > 100 µM | > 100 µM | > 100 µM | > 100 µM | > 100 µM | > 100 µM | > 100 µM | > 100 µM | – | – |
| CCCCCCCCCCCCCC(=O)NO | 81.6 µM | > 95 µM | 38.7 µM | 27.2 µM | 27.3 µM | 60.3 µM | > 94.8 µM | > 62.5 µM | > 100 µM | – |
| COc1ccccc1/C=C1\CCC(CN2CCOCC2)C1=O (stereo not given) | 31.8 µM | 48.2 µM | 9.34 µM | 35.6 µM | 28.4 µM | 30.1 µM | 18.1 µM | 24.4 µM | 26.9 µM | – |
| c1ccc(N2CCN(CCCN3CCc4c([nH]c5ccccc45)C3c3cccnc3)CC2)cc1 (stereo not given) | > 100 µM | > 100 µM | > 100 µM | > 100 µM | > 75.4 µM | 44.6 µM | > 100 µM | 98.2 µM | – | – |
| C=C1CCCC2OC(OC)CCC12 (stereo not given) | > 100 µM | > 100 µM | > 100 µM | > 100 µM | > 100 µM | > 100 µM | > 100 µM | > 100 µM | – | – |
| COc1ccc(C(=O)Nc2ccn(CCOC(=O)c3ccc(OC)cc3)c(=O)n2)cc1 | > 100 µM | > 100 µM | > 100 µM | > 100 µM | > 100 µM | > 100 µM | > 100 µM | > 100 µM | – | – |
| O=[N+]([O-])c1cc(C(F)(F)F)cc2n[se]nc12 | 8.96 µM | 25.9 µM | 3.14 µM | 5.92 µM | 27.3 µM | 5.66 µM | 8.93 µM | 30.8 µM | 3.85 µM | 10.4 µM |
